Earlier results as cited in patent publication US20150182483A1 (priority 2014, published 2015).

Assays:
[1] = system: chemical diabetes induced by streptozotocin
[2] = prior art, Kalogeropoulou et al. 2009
[3] = intravenous, subjects
[4] = pH at which two predominant microspecies have net charge of zero
[5] = humans
[6] = D-lysine treatment with streptozotocin diabetes

Compound | Blood glucose [1, 6] | Glycated lens proteins [1, 6] | Glycated serum proteins [1, 6] | HbA1 [1, 6] | Urinary d-lysine [1, 6] | Excretion ([1]; animal model) | Nephrotoxicity ([1]; animal model) | non-enzymatic glycation of hemoglobin, lens proteins and serum proteins ([1]; animal model of chemical diabetes induced by streptozotocin) | Response (hypoglycemic effect) [2] | Effect on blood ammonia [3] | Effect on blood glucose [3] | Isoelectric point (pI) [4] | Proposed upper limit (LD 50 not firmly established) [5]
NCCCC[C@@H](N)C(=O)O [D-lysine] | 25.1 mmol/L | 4.90% | 1.4% | 3.0% | 15.9 mmol/L | excreted in the urine | not nephrotoxic | decrease |  |  |  |  | 
NCCCC[C@H](N)C(=O)O [L-lysine] |  |  |  |  |  |  |  |  | Lower blood glucose | without significantly increasing blood ammonia | lowers blood glucose | approximately 9.7 | 300-400 mg×kg^−1xd^−1
